Results published in ChEMBL document CHEMBL1201862, “PubChem BioAssay data set” (2004).
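The compound was tested at five concentrations on cells cultured in 96-well plates, with a 48-hour exposure period. GI50: concentration for 50% inhibition of growth.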 Activity calls are given as the source filed them. No stated cut-off is given here; in the data, active = GI50 up to about 1.1 µM and inactive = higher.

Key:
Assay in all cases: NCI anticancer screen, dose series, 48 h
TK-10 = test system: TK-10
IGROV-1 = test system: IGROV-1
BT-549 = test system: BT-549
SF-295 = test system: SF-295
SK-MEL-5 = test system: SK-MEL-5
KM12 = test system: KM12
SW-620 = test system: SW-620
UACC-257 = test system: UACC-257
HOP-92 = test system: HOP-92
Malme-3M = test system: Malme-3M
MDA-MB-435 = test system: MDA-MB-435
SN12C = test system: SN12C
SR = test system: SR
OVCAR-5 = test system: OVCAR-5
CCRF-CEM = test system: CCRF-CEM
T47D = test system: T47D
HCC 2998 = test system: HCC 2998
K562 = test system: K562
NCI-H460 = test system: NCI-H460
DU-145 = test system: DU-145

Row | SMILES | GI50 (TK-10) | GI50 (IGROV-1) | GI50 (BT-549) | GI50 (SF-295) | GI50 (SK-MEL-5) | GI50 (KM12) | GI50 (SW-620) | GI50 (UACC-257) | GI50 (HOP-92) | GI50 (Malme-3M) | GI50 (MDA-MB-435) | GI50 (SN12C) | GI50 (SR) | GI50 (OVCAR-5) | GI50 (CCRF-CEM) | GI50 (T47D) | GI50 (HCC 2998) | GI50 (K562) | GI50 (NCI-H460) | GI50 (DU-145)
1 | O=C(NCCCCCCCCNC(=O)Nc1cccc2ccccc12)Nc1cccc2ccccc12 | 43.7 µM (inactive) | 50.6 µM (inactive) | 31.6 µM (inactive) | 28.5 µM (inactive) | 42.3 µM (inactive) | > 100 µM (inactive) | 9.66 µM (inactive) | > 100 µM (inactive) | 6.92 µM (inactive) | > 100 µM (inactive) | 17.3 µM (inactive) | 18.4 µM (inactive) | > 10 µM (inactive) | 41.7 µM (inactive) | 12.9 µM (inactive) | 24 µM (inactive) | 30.1 µM (inactive) | 14.5 µM (inactive) | 3.5 µM (inactive) | > 100 µM (inactive)
2 | O=C(O)CCSC(CC1(c2ccc(Cl)cc2)NC(=O)CCS1)c1ccccc1 (stereo not given) | 18.4 µM (inactive) | 12.1 µM (inactive) | 17 µM (inactive) | 21.2 µM (inactive) | 13 µM (inactive) | 3.56 µM (inactive) | 5.12 µM (inactive) | 21.9 µM (inactive) | 33.8 µM (inactive) | 22.9 µM (inactive) | 14.3 µM (inactive) | 18.3 µM (inactive) | 8.32 µM (inactive) | 17.9 µM (inactive) | 1.9 µM (inactive) | 16.1 µM (inactive) | 10 µM (inactive) | 10.8 µM (inactive) | 16.8 µM (inactive) | > 39.4 µM (inactive)
3 | O=C(Cn1nc(Br)c(Br)c1Br)c1ccccc1 | 13.7 µM (inactive) | 27.7 µM (inactive) | 20.2 µM (inactive) | 29.1 µM (inactive) | 18.1 µM (inactive) | 33.4 µM (inactive) | 34 µM (inactive) | 20 µM (inactive) | 20 µM (inactive) | 22 µM (inactive) | 31 µM (inactive) | 65.6 µM (inactive) | 0.152 µM (active) | 40.7 µM (inactive) | 5.97 µM (inactive) | 24.5 µM (inactive) | 36.6 µM (inactive) | 10.8 µM (inactive) | 23.8 µM (inactive) | 38.5 µM (inactive)
4 | CC(C)NC(=O)OCc1c(COC(=O)NC(C)C)c(-c2cc[n+](COC(=O)C(C)(C)C)cc2)n2c1CCC2 | > 100 µM (inactive) | > 100 µM (inactive) | > 100 µM (inactive) | > 100 µM (inactive) | > 100 µM (inactive) | > 100 µM (inactive) | > 100 µM (inactive) | > 100 µM (inactive) | > 100 µM (inactive) | > 100 µM (inactive) | > 100 µM (inactive) | > 100 µM (inactive) | 19.1 µM (inactive) | > 100 µM (inactive) | > 100 µM (inactive) | > 100 µM (inactive) | > 100 µM (inactive) | > 100 µM (inactive) | > 100 µM (inactive) | > 100 µM (inactive)
5 | CN1CCN(C2=C(Cl)C(=O)c3c(O)ccc(O)c3C2=O)CC1 | 0.514 µM (active) | 1.3 µM (inactive) | 0.486 µM (active) | 1.78 µM (inactive) | 0.502 µM (active) | 1.99 µM (inactive) | 0.187 µM (active) | 0.689 µM (active) | 0.223 µM (active) | 0.196 µM (active) | 0.214 µM (active) | 0.826 µM (active) | 0.094 µM (active) | 1.58 µM (inactive) | 0.105 µM (active) | 0.551 µM (active) | 2.04 µM (inactive) | 0.217 µM (active) | 1.94 µM (inactive) | 1.78 µM (inactive)
6 | CN(C)c1ccc(/C=C2\N=C(c3ccccc3)N(/N=C3\C(=O)Nc4ccccc43)C2=O)cc1 | 53.2 µM (inactive) | 25.9 µM (inactive) | > 100 µM (inactive) | 69.8 µM (inactive) | 47.8 µM (inactive) | 50.9 µM (inactive) | 65 µM (inactive) | 85.3 µM (inactive) | 16.9 µM (inactive) | 45.9 µM (inactive) | 20.4 µM (inactive) | 56.9 µM (inactive) | 27 µM (inactive) | > 100 µM (inactive) | 37.2 µM (inactive) | 41.6 µM (inactive) | 52.4 µM (inactive) | 32 µM (inactive) | 50.5 µM (inactive) | 61.9 µM (inactive)
7 | CN(C)CCCn1c(Cc2ccc(Cl)cc2)nc2cc(C(F)(F)F)ccc21 | 15.3 µM (inactive) | 13.1 µM (inactive) | 17 µM (inactive) | 17.5 µM (inactive) | 15.8 µM (inactive) | 14.3 µM (inactive) | 23.4 µM (inactive) | 15.6 µM (inactive) | 9.98 µM (inactive) | 11 µM (inactive) | 12.9 µM (inactive) | 15.1 µM (inactive) | 15 µM (inactive) | 17.7 µM (inactive) | 13 µM (inactive) | 12 µM (inactive) | 2 µM (inactive) | 6.41 µM (inactive) | 13.2 µM (inactive) | 14.1 µM (inactive)
